# Entries after “also recorded” stand apart in the source; their conditions may differ.
# Experiments:
# [1] = Naltrexone saturation in Earle's solution; format: physicochemical; details: Earle's Balanced Salt Solution, 37° C.; read-out: saturation concentration
# Procedure: The resulting implants were evaluated by both in vitro and in vivo techniques. In making the in vitro evaluations the films were measured for weight, thickness, and surface area, and were then rinsed briefly with Earle's Balanced Salt Solution (IX--without phenol red, Grand Island Biological Company). Individual films were placed in stoppered test tubes containing 10 ml of the Earle's solution. The tubes were placed in a shaker water bath at 37° C. and were gently agitated. Drug concentration of the solution was periodically assayed by scintillation counting techniques to permit an evaluation of the in vitro drug-release behavior of the copolymers. (The solutions were replaced sufficiently frequently that the naltrexone concentration remained far below saturation, i.e., below ~460 mg/100 ml).
# [2] = Tritium excretion in urine of rats given labelled prednisolone; format: in vivo, rat (female CD); details: for Tritium in urine of rats: group 3, control, s.c. injection 1.0 mg/rat
# Procedure: These implants contained from 0.65 to 2.0 mg of radioactively-labelled prednisolone, depending on the size of the implant rectangle. The implants were sterilized by immersion in alcohol and then rinsed with sterile Earle's Balanced Salt Solution. The devices were implanted subcutaneously into the backs of two groups each of eight female CD rats (Charles River Breeding Laboratories, Inc.). To accomplish the implantations, the dorsal area was shaved, cleaned with alcohol and then a one-half inch incision was made in the skin. The skin was then separated from the muscle tissue and the implant inserted at this site. The incision was then sutured.
# Each animal of a third group of four female CD rats from the same source was subcutaneously injected with 0.5 cc of an 0.5% hydroxy propylcellulose solution containing an amount of the same radioactiviely labelled prednisolone approximately equivalent to that contained in the implant devices (i.e., 1 mg prednisolone/rat).
# All of the animals were housed in metabolic cages. The radioactivities in the urines collected were measured by the standard procedure of scintillation counting, and from these measurements values of disintegrations per minute (DPM) were calculated. Radioactivities were thus measured every 24 hours for the first four days and then for an additional 72 hour level to complete a week of testing.
# The average DPM values obtained for the two groups of implanted rats (average dosage of 1.5 mg/rat) and the one group of control rats (average dosage of 1.0 mg/rat) are given in Table 1. During the first day a number of rats escaped from their cages so that the average figures given are for fewer than the total number of animals in each group.
Structure (SMILES),solubility [1],Tritium in urine of rats ([2]; 0-24 h),Tritium in urine of rats ([2]; 24-48 h),Tritium in urine of rats ([2]; 48-72 h),Tritium in urine of rats ([2]; 72-96 h),"Tritium in urine of rats ([2]; 96-168 h, minus values indicate noise)","excretion / drug release in words ([2]; implants to one week, control first 24 h and end of fourth day)"
O=C1CC[C@@]2(O)[C@H]3Cc4ccc(O)c5c4[C@@]2(CCN3CC2CC2)[C@H]1O5 [naltrexone],~4600 µg/mL,–,–,–,–,–,–
C[C@]12C=CC(=O)C=C1CC[C@@H]1[C@@H]2[C@@H](O)C[C@@]2(C)[C@H]1CC[C@]2(O)C(=O)CO [prednisolone],–,"33,038 DPM","4,424 DPM","3,335 DPM",86 DPM,-248 DPM,very high excretion rates in the first 24 hours; also recorded: practically no excretion of radioactive material

# Reference: patent US4351337A, “Biodegradable, implantable drug delivery device, and process for preparing and using the same” (Arthur D. Little, Inc., priority 1980, dated 1982)
